Source: patent US20260274892A1, “MACROCYCLIC BROAD SPECTRUM ANTIBIOTICS” (RQx Pharmaceuticals, Inc., priority 2017, published 2026)
Blank lines part the entries; values can stand above or below the compound they belong to.

Tested on: Escherichia coli ATCC 25922
Assay: Minimum inhibitory concentration (MIC), CLSI broth micro-dilution, E. coli
Assay type: cell-based
Settings: Escherichia coli
Method: In vitro antimicrobial activity of each compound was determined by measuring minimal inhibitor concentrations (MICs) using the broth micro-dilution technique as approved by the Clinical and Laboratory Standards Institute (CLSI) (Methods for Dilution Antimicrobial Susceptibility Tests for Bacteria that Grow Aerobically; Approved Standard-Eighth Edition. CLSI document M07-A8. Wayne, PA: Clinical and Laboratroy Standards; 2009). Antibacterial activity was measure against two strains of bacteria: a Methicillin Resistant Staphylococcus aureus strain USA 200, (S. aureus) and Escherichia coli ATCC 25922 (E. coli), a clinically relevant Gram-negative strain. Cells were inoculated onto plates of Trypyticase Soy Agar or Luria Agar respectively and grown at 35° C. for 20 hours. Inocula suspensions were prepared by scraping cells into 1 mL of testing media (cation adjusted Mueller Hinton Broth supplemented with 0.002% v/v Tween-80) and diluting to a final OD600nm of 0.01.
Test compounds were prepared in DMSO at a concentration of 10 mg/mL. In protocol 1, the compound stocks were diluted into testing media at a concentration of 64 µg/ml and serial 2-fold dilutions were made in the same media, in 96-well U bottom microtiter dishes, for a total of 10 compound concentrations. In protocol 2, the compound stocks were diluted into testing media at a concentration of 4 µg/mL and serial 2-fold dilutions were made in the same media, in 96-well U bottom microtiter dishes, for a total of 10 compound concentrations. In protocol 3, compound stocks were diluted into testing media at a concentration of 0.5 μg/mL, with serial 2-fold dilutions conducted as described above. In protocol 4, compound stocks were diluted into testing media at a concentration of […], with serial 2-fold dilutions conducted as described above. Inocula suspensions were added to the 2-fold serial dilutions of test compounds to a final density of GD OD600nm of 0.0005 and incubated at 35° C. for 22 hours.

[1] = ATCC25922, 22 h, Table 7, cation adjusted Mueller Hinton Broth + 0.002% Tween-80, 35° C.
[2] = ATCC25922, Table 6, cation adjusted Mueller Hinton Broth + 0.002% Tween-80, 35° C., 22 hours
[3] = ATCC25922, Table 7, cation adjusted Mueller Hinton Broth + 0.002% Tween-80, 35° C., 22 hours

MIC [1]: 0.094 µM
Structure (SMILES): Cc1nc(-c2ccc(C(C)(C)C)cc2)nc(C)c1C(=O)N[C@@H](CCN)C(=O)N(C)[C@@H]1C(=O)N[C@@H](C)C(=O)N[C@H](C(=O)NCC#N)Cc2ccc(OCCN)c(c2)-c2cc1ccc2OC[C@H](O)CN (racemic) [Compound 571, rac-(8S,11S,14S)-3-(2-aminoethoxy)-N-(cyanomethyl)-11-methyl-14-[methyl-[rac-(2S)-4-amino-2-[[2-(4-tert-butylphenyl)-4,6-dimethyl-pyrimidine-5-carbonyl]amino]butanoyl]amino]-10,13-dioxo-18-[rac-(2R)-3-amino-2-hydroxy-propoxy]-9,12-diazatricyclo[13.3.1.12,6]icosa-1(18),2(20),3,5,15(19),16-hexaene-8-carboxamide]

MIC [1]: 0.19 µM
Structure (SMILES): Cc1nc(-c2ccc(C(C)(C)C)cc2)nc(C)c1C(=O)N[C@@H](CCN)C(=O)N(C)[C@@H]1C(=O)N[C@@H](C)C(=O)N[C@H](C(=O)NCC#N)Cc2ccc(O)c(c2)-c2cc1ccc2OCC(CN)CN (racemic) [Compound 611, rac-(8S,11S,14S)-18-[3-amino-2-(aminomethyl)propoxy]-N-(cyanomethyl)-3-hydroxy-11-methyl-14-[methyl-[rac-(2S)-4-amino-2-[[2-(4-tert-butylphenyl)-4,6-dimethyl-pyrimidine-5-carbonyl]amino]butanoyl]amino]-10,13-dioxo-9,12-diazatricyclo[13.3.1.12,6]icosa-1(18),2(20),3,5,15(19),16-hexaene-8-carboxamide]

Structure (SMILES): Cc1nc(-c2ccc(C(C)(C)C)cc2)ncc1C(=O)N[C@@H](CCN)C(=O)N(C)[C@@H]1C(=O)N[C@@H](C)C(=O)N[C@H](C(=O)NCC#N)Cc2ccc(OCCCN)c(c2)-c2cc1ccc2OCCCN (racemic) [Compound 433, rac-(8S,11S,14S)-3,18-bis(3-aminopropoxy)-N-(cyanomethyl)-11-methyl-14-[methyl-[rac-(2S)-4-amino-2-[[2-(4-tert-butylphenyl)-4-methyl-pyrimidine-5-carbonyl]amino]butanoyl]amino]-10,13-dioxo-9,12-diazatricyclo[13.3.1.12,6]icosa-1(18),2(20),3,5,15(19),16-hexaene-8-carboxamide]
MIC [2]: 0.096 µM

Structure (SMILES): COc1cc(OCCN)c2cc1-c1cc(ccc1OCCN)[C@H](N(C)C(=O)[C@H](CNS(N)(=O)=O)NC(=O)c1c(C)nc(-c3ccc(C(C)(C)C)cc3)nc1C)C(=O)N[C@@H](C)C(=O)N[C@H](C(=O)NCC#N)C2 (racemic) [Compound 627, rac-(8S,11S,14S)-5,18-bis(2-aminoethoxy)-N-(cyanomethyl)-3-methoxy-11-methyl-14-[methyl-[rac-(2S)-2-[[2-(4-tert-butylphenyl)-4,6-dimethyl-pyrimidine-5-carbonyl]amino]-3-(sulfamoylamino)propanoyl]amino]-10,13-dioxo-9,12-diazatricyclo[13.3.1.12,6]icosa-1(18),2(20),3,5,15(19),16-hexaene-8-carboxamide]
MIC [3]: 0.5 µM

MIC [1]: 0.063 µM
Structure (SMILES): Cc1nc(-c2ccc(OC3CCCCC3)cc2)nc(C)c1C(=O)N[C@@H](CCN)C(=O)N(C)[C@@H]1C(=O)N[C@@H](C)C(=O)N[C@H](C(=O)NCC#N)Cc2ccc(OC[C@H](O)CN)c(c2)-c2cc1ccc2OC[C@H](O)CN (racemic) [Compound 568, rac-(8S,11S,14S)-N-(cyanomethyl)-11-methyl-14-[methyl-[rac-(2S)-4-amino-2-[[2-[4-(cyclohexoxy)phenyl]-4,6-dimethyl-pyrimidine-5-carbonyl]amino]butanoyl]amino]-10,13-dioxo-3,18-bis[rac-(2R)-3-amino-2-hydroxy-propoxy]-9,12-diazatricyclo[13.3.1.12,6]icosa-1(18),2(20),3,5,15(19),16-hexaene-8-carboxamide]

MIC [1]: 0.38 µM
Structure (SMILES): Cc1nc(-c2ccc(C(C)(C)C)cc2)nc(C)c1C(=O)N[C@@H](CCN)C(=O)N(C)[C@@H]1C(=O)N[C@@H](C)C(=O)N[C@H](C(=O)NCC#N)Cc2ccc(O)c(c2)-c2cc1ccc2OC1CCNCC1 (racemic) [Compound 608, rac-(8S,11S,14S)-N-(cyanomethyl)-3-hydroxy-11-methyl-14-[methyl-[rac-(2S)-4-amino-2-[[2-(4-tert-butylphenyl)-4,6-dimethyl-pyrimidine-5-carbonyl]amino]butanoyl]amino]-10,13-dioxo-18-(4-piperidyloxy)-9,12-diazatricyclo[13.3.1.12,6]icosa-1(18),2(20),3,5,15(19),16-hexaene-8-carboxamide]

Structure (SMILES): Cc1nc(-c2ccc(OC3CCCCC3)cc2)nc(C)c1C(=O)N[C@@H](CC(N)=O)C(=O)N(C)[C@@H]1C(=O)N[C@@H](C)C(=O)N[C@H](C(=O)NCC#N)Cc2ccc(OCCN)c(c2)-c2cc1ccc2OCCN [Compound 506, (2S)-N-[(7S,10S,13S)-3,18-bis(2-aminoethoxy)-13-(cyanomethylcarbamoyl)-10-methyl-8,11-dioxo-9,12-diazatricyclo[13.3.1.12,6]icosa-1(19),2,4,6(20),15,17-hexaen-7-yl]-2-[[2-[4-(cyclohexoxy)phenyl]-4,6-dimethyl-pyrimidine-5-carbonyl]amino]-N-methyl-butanediamide]
MIC [2]: 0.83 µM

MIC [1]: 0.5 µM
Structure (SMILES): Cc1nc(-c2ccc(C(C)(C)C)cc2)nc(C)c1C(=O)N[C@@H](CCN)C(=O)N(C)[C@@H]1C(=O)N[C@@H](C)C(=O)N[C@H](C(=O)NCC#N)Cc2ccc(O)c(c2)-c2cc1ccc2OC(C)CN (mixture of isomers) [Compound 607, rac-(8S,11S,14S)-18-(2-amino-1-methyl-ethoxy)-N-(cyanomethyl)-3-hydroxy-11-methyl-14-[methyl-[rac-(2S)-4-amino-2-[[2-(4-tert-butylphenyl)-4,6-dimethyl-pyrimidine-5-carbonyl]amino]butanoyl]amino]-10,13-dioxo-9,12-diazatricyclo[13.3.1.12,6]icosa-1(18),2(20),3,5,15(19),16-hexaene-8-carboxamide]

MIC (ATCC25922, 22 h, Table 6, cation adjusted Mueller Hinton Broth + 0.002% Tween-80, 35° C.): 0.38 µM
Structure (SMILES): CCc1nc(-c2ccc(C(C)(C)C)cc2)cc(N)c1C(=O)N[C@@H](CCN)C(=O)N(C)[C@@H]1C(=O)N[C@@H](C)C(=O)N[C@H](C(=O)NCC#N)Cc2ccc(OCCN)c(c2)-c2cc1ccc2OCCN (racemic) [Compound 546, rac-(8S,11S,14S)-3,18-bis(2-aminoethoxy)-N-(cyanomethyl)-11-methyl-14-[methyl-[rac-(2S)-4-amino-2-[[4-amino-6-(4-tert-butylphenyl)-2-ethyl-pyridine-3-carbonyl]amino]butanoyl]amino]-10,13-dioxo-9,12-diazatricyclo[13.3.1.12,6]icosa-1(18),2(20),3,5,15(19),16-hexaene-8-carboxamide]

Structure (SMILES): Cc1nc(-c2ccc(C(C)(C)C)cc2)nc(C)c1C(=O)N[C@@H](CCN)C(=O)N(C)[C@@H]1C(=O)N[C@@H](C)C(=O)N[C@H](C(=O)NCC#N)Cc2ccc(OC[C@H](O)CN)c(c2)-c2cc1ccc2O (racemic) [Compound 614, rac-(8S,11S,14S)-N-(cyanomethyl)-18-hydroxy-11-methyl-14-[methyl-[rac-(2S)-4-amino-2-[[2-(4-tert-butylphenyl)-4,6-dimethyl-pyrimidine-5-carbonyl]amino]butanoyl]amino]-10,13-dioxo-3-[rac-(2R)-3-amino-2-hydroxy-propoxy]-9,12-diazatricyclo[13.3.1.12,6]icosa-1(18),2(20),3,5,15(19),16-hexaene-8-carboxamide]
MIC [3]: 0.19 µM

Structure (SMILES): CCCCCCCCc1ccc(C(=O)N[C@@H](CCCNC(N)=O)C(=O)N(C)[C@@H]2C(=O)N[C@@H](C)C(=O)N[C@H](C(=O)NCC#N)Cc3ccc(OCCN)c(c3)-c3cc2ccc3OCCN)c(C)c1 (racemic) [Compound 450, rac-(8S,11S,14S)-3,18-bis(2-aminoethoxy)-N-(cyanomethyl)-11-methyl-14-[methyl-[rac-(2S)-2-[(2-methyl-4-octyl-benzoyl)amino]-5-ureido-pentanoyl]amino]-10,13-dioxo-9,12-diazatricyclo[13.3.1.12,6]icosa-1(18),2(20),3,5,15(19),16-hexaene-8-carboxamide]
MIC [2]: 2.1 µM

Structure (SMILES): Cc1nc(-c2ccc(C(C)(C)C)cc2)nc(C)c1C(=O)N[C@@H](CCN)C(=O)N(C)[C@@H]1C(=O)N[C@@H](C)C(=O)N[C@H](C(=O)NCC#N)Cc2cc(c(O)cc2CN)-c2cc1ccc2OCCN (racemic) [Compound 626, rac-(8S,11S,14S)-18-(2-aminoethoxy)-5-(aminomethyl)-N-(cyanomethyl)-3-hydroxy-11-methyl-14-[methyl-[rac-(2S)-4-amino-2-[[2-(4-tert-butylphenyl)-4,6-dimethyl-pyrimidine-5-carbonyl]amino]butanoyl]amino]-10,13-dioxo-9,12-diazatricyclo[13.3.1.12,6]icosa-1(18),2(20),3,5,15(19),16-hexaene-8-carboxamide]
MIC [3]: 0.25 µM
